# Assay results published in patent US4152425A, “Glucose containing infusion solution” (THERA Gesellschaft fur Patentverwertung mbH, priority 1976, dated 1979).
# Where no end group is shown, it is not given here.
# What was measured:
# [1] = test system: resting forearm; assay: Resting forearm test, 10 milliliter injection into the artery of the arm; type: in vivo, human; settings: fraction of 1μ gram in 10 milliliter of 10% glucose solution injected into the artery of the arm, versus kinin-free solution
# Excerpt: This illustrates the improved glucose absorption into the tissue of the arm and the muscular system of the hand when the solution of the present invention is employed. Since the effect of this decrease in the glucose level of the blood by the kinin admixture occurs so quickly, it may be assumed that this is caused not by an intensification of the decomposition of the glucose or the metabolism within the cell but by a more rapid penetration of the muscular cell.
# [2] = test system: spermatozoa; settings: cited from earlier work
# [3] = Decomposition of the kinins within the organism; settings: in vivo
# Excerpt: This is unexpected and surprising because the phenothiazines were known heretofore only as substances having an anti-depressive effect. This fact could cause one to conclude, however, that they could affect certain oligopeptides which influence the metabolism and would indirectly, i.e., by inhibiting the decomposition of the kinins, improve the glucose assimilation of the tissue.
Compound,glucose content in the blood flowing through the vein of the arm [1],mobility of the spermatozoa [2],decomposition of the kinins within the organism [3]
"RPPGFSPFR [Brady kinin, (NH2) arginine - proline - proline - glycine - phenylalanine - serine - proline - phenylalanine - arginine (COOH)]",pronounced decrease,further the mobility of the spermatozoa,–
CN(C)CCCN1c2ccccc2Sc2ccc(Cl)cc21 [2-chloro-10-(3-dimethylamino-propyl)-phenothiazine],–,–,inhibited significantly
"kallidin: decapeptide kinin differing from Brady kinin only by a lysine residue at the amino end (KRPPGFSPFR; Lysyl-bradykinin; UniProt P01042 380-389, looked up)",–,further the mobility of the spermatozoa,–
